Measured values taken from patent US20090304818A1, “METHOD OF TREATMENT” (priority 2005, published 2009).

Tested on: sepsis in conscious sheep
Experiment: Ang II infusion in E. coli-induced sepsis in conscious sheep (FIG. 1)
Assay type: in vivo
Details: sepsis + Ang II infusion period, four conscious sheep
Procedure: Seven female Merino ewes weighing between 34.2 kg and 47.3 kg were procured for chronic instrumentation. The sheep were held and studied in metabolic cages, with free access to food and water. The animals underwent two separate operative procedures. For all procedures, anaesthesia was induced with sodium thiopentone (15 mg/kg) for endotracheal tube placement (cuff size 10). Maintenance anaesthesia was by means of oxygen/air/isoflurane (1 to 2%). Fractional inspired oxygen was altered to maintain PaO2 at approximately 100 mm Hg, and ventilation was controlled to maintain PaCO2 at approximately 40 mm Hg.
First, a left-sided thoracotomy was performed. The pericardium was opened, and a transit time flow probe (20 mm, Transonics Systems, Ithaca, N.Y.) was placed around the pulmonary artery to measure cardiac output. After two weeks recovery, a left-sided flank incision was made and a retroperitoneal dissection was performed to expose the left renal artery. […]
Analog signals of mean arterial pressure (MAP), central venous pressure (CVP), cardiac output (CO), and renal blood flow (RBF) were collected using a PC using a customized data acquisition system (Labview National Instruments). Data were recorded at 100 Hz for 10 s at every minute throughout the experimental protocol. Total peripheral conductance (TPC) (cardiac output/mean arterial pressure) and renal vascular conductance (RVC) (renal blood flow/mean arterial pressure) were calculated.
During the experimental periods MAP, CVP, CO, RBF and heart rate were measured continuously. Following a 12-hour baseline period, sheep were monitored for a 48 hour control period. After 7 days, sheep were monitored for a 2nd baseline period, followed by induction of sepsis by intravenous administration of a bolus of live E. coli (3.9×10^9 colony forming units in 15 mL saline), followed by a continuous infusion ([…] at 5 mL/h) for 48 h. […]
In both treatments, after the 12-hour baseline period, normal saline (1 mL/kg/h) was infused to avoid hypovolemia. Urinary output was measured and urine sampled every 90 minutes. […]

angiotensin II (DRVYIHPF; Angiotensin-2; UniProt P01019 25-32, looked up) [Ang II, vasoconstricting agent with preferential action on the efferent arteriole of the glomerulus; acts at the AT-1 receptor]
return these variables to normal: renal blood flow (increased in sepsis) | mean arterial pressure (reduced in sepsis) | urine output (reduced in sepsis)
